# US8691195B2, “Peptide having activity of transforming growth factor and production method therefor” (Caregen Co., Ltd., priority 2009, dated 2014)
# Ends that are not written are not given here.
# Assays:
# [1] = Heat stability: residual activity by MTT assay after storage at 40° C.; type: physicochemical; conditions: days 0-100, MTT assay, FIG. 3
# Experimental: To evaluate heat stability of the peptide 2 prepared in Example 1, the peptide 2 was dissolved in 50 mM Tris-HCl buffer (pH 8.0) to a concentration of 10 μg/ml. Recombinant TGF-β1 (Sigma) as control was produced from E. coli and dissolved in 50 mM Tris-HCl buffer (pH 8.0) at a concentration of 1 μg/ml. The prepared solutions were introduced into glass vials and kept to stand at 40° C. Afterwards, the solutions were taken on days 0, 1, 10, 25, 50, 75 and 100, and subjected to MTT assay (Scudiero, D. A., et al., Cancer Res., 48: 4827-4833 (1988)) to determine residual activities of the peptide and recombinant TGF-β1 (FIG. 3).
# [2] = test system: tyrosinase; experiment: Tyrosinase activity in α-MSH-treated B16F10 cells (L-DOPA, absorbance at 405 nm); type: cell-based; conditions: 4 days, FIG. 6
# Experimental: For verifying effects on skin whitening of the peptide synthesized in Example 1 and TGF-β, cells were treated with α-MSH and the inhibition in melanin generation was measured. B16F10 cells (Korean Cell Line Bank) were inoculated in a density of 1×10^5 cells/well and cultured in DMEM for 3 days. After cell adhesion was observed, medium was changed with a fresh medium containing 2% serum. Cells were incubated with each test group for 4 days: (a) no treatment as negative control; (b) 200 μg/ml α-MSH as a positive control; and (c) 200 μg/ml α-MSH plus 1 μg/ml or 10 μg/ml peptide 2. […] Subsequently, cells were harvested and treated with a lysis buffer to extract total proteins. The extracted proteins were quantitated by the BCA (bicinchonic acid) method. For each experiment group, 90 μl of protein solution and 10 μl of L-DOPA (L-3,4-dihydroxyphenylalanine; Sigma) were added and reacted for 30 min at 37° C. The resultants were analyzed to measure their absorbance values at 405 nm for evaluating tyrosinase activities.
# [3] = test system: B16F10 melanoma cells; experiment: Melanosome changes / cell morphology in α-MSH-treated B16F10 melanoma cells; type: cell-based; conditions: 200 μg/ml α-MSH plus 10 μg/ml peptide, 4 days, FIG. 7
# Experimental: (§1) First, B16F10 cells were plated at a 6-well plate in a density of 1×10^5 cells/well and cultured for 3 days. After cell adhesion was observed, medium was changed with a fresh medium containing 2% serum. Cells were incubated with each test group for 4 days: (a) no treatment as negative control; (b) 200 μg/ml α-MSH as a positive control; and (c) 200 μg/ml α-MSH plus 10 μg/ml peptide 2.
# [4] = test system: TRP1 (tyrosinase-related protein-1); experiment: RT-PCR of TRP1 mRNA in α-MSH-treated B16F10 melanoma cells; type: cell-based; conditions: 200 μg/ml α-MSH plus 10 μg/ml peptide, 4 days, FIG. 8
# Experimental: (§2) To more clearly check activities of TGF-mimicking peptide on skin whitening in α-MSH-treated B16F10 melanoma cells, mRNA level of TRP1 (tyrosinase-related protein-1), TRP2 and MITF (microphthalmia-associated transcription factor) was measured using RT-PCR.
# as §1
# (§3) Subsequently, mRNA were extracted from cells and RT-PCR was carried out using primers for TRP1, TRP2 and MITF. The primer sequence is as follows: TRP1 F-primer, 5′-[…]-3′ and TRP1 R-primer, 5′-[…]-3′; TRP2 F-primer, 5′-[…]-3′ and TRP2 R-primer, 5′-[…]-3′; and MITF F-primer, 5′-[…]-3′ and MITF R-primer, 5′-[…]-3′.
# [5] = test system: TRP2; experiment: RT-PCR of TRP2 mRNA in α-MSH-treated B16F10 melanoma cells; type: cell-based; conditions: 200 μg/ml α-MSH plus 10 μg/ml peptide, 4 days, FIG. 8
# Experimental: as §2, §1, §3
# [6] = test system: MITF (microphthalmia-associated transcription factor); experiment: RT-PCR of MITF mRNA in α-MSH-treated B16F10 melanoma cells; type: cell-based; conditions: 200 μg/ml α-MSH plus 10 μg/ml peptide, 4 days, FIG. 8
# Experimental: as §2, §1, §3
# [7] = test system: procollagen; experiment: Procollagen production in NIH3T3 fibroblasts (Procollagen ELISA kit); type: cell-based; conditions: NIH3T3, 1 μg/ml or 10 μg/ml, 72 hr, FIG. 9
# Experimental: (§4) NIH3T3 cells cultured for 48 hr were incubated with the peptide of the present invention with a concentration of 1 μg/ml or 10 μg/ml for 72 hr, respectively. The levels of procollagen and fibronectin, indicators to show the improvement in skin wrinkle, were examined. The quantification was performed using Procollagen ELISA kit (Takara, Japan) and Fibronectin ELISA kit (CHEMICON, USA).
# [8] = test system: fibronectin; experiment: Fibronectin production in NIH3T3 fibroblasts (Fibronectin ELISA kit); type: cell-based; conditions: NIH3T3, 1 μg/ml or 10 μg/ml, 72 hr, FIG. 10
# Experimental: as §4
# [9] = test system: C57BL/6 Mice melanocytes; experiment: Inhibition of melanin generation in α-MSH-treated melanocytes; type: cell-based; conditions: 200 μg/ml α-MSH alone (positive control), 3 days, FIG. 4
# Experimental: To evaluate reduction of melanin pigment by the peptide 2 synthesized in Example 1, C57BL/6 Mice melanocytes cultured were incubated with α-MSH (melanocyte stimulating hormone; Sigma) and then with the peptide in the determined concentrations to measure inhibition effects on melanin generation. Mice melanocytes were cultured in DMEM (Dulbecco's modified Eagle's media; Sigma) supplemented with 10% FBS (fetal bovine serum; Sigma) at 37° C. under 5% CO2 conditions. Cells were cultured in a 24-well culture plate with a density of 1×10^5 cells/well and their adhesion to the plate was observed. Then, cells were incubated with each test group for 3 days: (a) a solvent as control; (b) 200 μg/ml α-MSH as a positive control; and (c) 200 μg/ml α-MSH plus 1 μg/ml or 10 μg/ml peptide 2. The test materials were prepared in such a manner that each component was dissolved in medium solvent and diluted at an equivalent rate to the aforementioned concentration using a mixed solvent of propylene glycol:ethanol:distilled water (5:3:2). After removing culture medium by centrifugation, melanin contents in each group could be observed with naked eye. […]
# More specifically, cells were washed with PBS (phosphate buffered saline) and treated with 1 N sodium hydroxide. The resultants were analyzed to measure their absorbance values at 400 nm. […]
substance,measurement,setting,value
NH2-Gly-Arg-Gly-Asp-Tyr-Ile-Trp-Ser-Leu-Asp-Thr-Gln-OH (H-GRGDYIWSLDTQ-OH) [peptide 2],residual activity over time (heat stability),[1]; 10 μg/ml in 50 mM Tris-HCl buffer (pH 8.0),not to be decreased over time
same,reduction of tyrosinase activity,"[2]; 200 μg/ml α-MSH plus 1 μg/ml or 10 μg/ml peptide, versus α-MSH only",about 30%
same,α-MSH-induced melanosomes,[3],eliminated
same,mRNA level of TRP1,[4],inhibit
same,mRNA level of TRP2,[5],inhibit
same,mRNA level of MITF,[6],inhibit
same,production of procollagen,[7],remarkably promote
same,level of fibronectin,[8],increase
"recombinant TGF-β1: Recombinant TGF-β1 (Sigma) produced from E. coli, used as control",residual activity over time (heat stability),[1]; 1 μg/ml in 50 mM Tris-HCl buffer (pH 8.0),sharply decreased with the lapse of time
"α-MSH: melanocyte stimulating hormone (Sigma), inducer of melanin generation, positive control (SYSMEHFRWGKPV; ends and bridges not checked; UniProt P01189 138-150, looked up) [reference compound]",melanin content,[9],strikingly increased
same,tyrosinase activity,[2]; 200 μg/ml α-MSH only,highly elevated level
